From US20110092589A1, “Treatment of Inflammatory Conditions and Diseases with Metal-Thiols” (THE CHARLOTTE-MECKLENBURG HOSPOTAL AUTHORITY, priority 2008, published 2011)

Legend:
IL-10 = test: Serum free IL-10 in mouse inflammation model; assay type: in vivo, mice; details: Table 2; treatment i.v. five hours after initiation of inflammation; BisEDT 20 ug/kg
Method: (§1) In the following examples, the protective effects of BisEDT was studied in an inflammation model of mice. Male swiss white mice weighing between 30-35 grams were used. The cecum of the mice were ligated and perforated to cause inflammation. BisEDT was prepared in a molar concentration of 1:2 by adding 4.9 pi 10.19 M EDT to 1 ml of 50 mM Bi(NO3)3 in propylene glycol.
A total of eight groups each containing 10-20 mice in each group were used for the next phase of the study. Five hours after initiation of inflammation, 20 ug/kg BisEDT was administered intravenously with the combination of different biologics indicated in Table 2 with one group that received vehicle only (control). The survival time for each group was recorded. In another eight groups of mice 10 in each group was injected similarly with the same combination of treatment and control and several measures of immune response were assessed such as measurement of pro- and anti-inflammatory cytokines during BisEDT treatment of these mice. […] From 60-70% of mice survived when treated with one or two doses of 20 μg/kg BisEDT (p<0.05), whereas doses 10-fold higher or lower protected only 30-40% of mice (Table 1). […] However, only free TNFα, not total TNFα or free IL-10, correlated strongly with survival (r=−0.92). IL-10 is an anti-inflammatory cytokine and under certain circumstances it can cause immunosuppression. […]

Male swiss white mice = test: Survival in inflammation model of mice (cecum ligated and perforated); assay type: in vivo; details: for % Survival 1 dose: tail vein once daily for three days; for % Survival 1 dose / % Survival 2 doses: monitored 8 days; for % Survival 2 doses: tail vein twice daily for three days; for % Survived / Survived/Total: Table 2, treatment i.v. five hours after initiation of inflammation, BisEDT 20 ug/kg
Method: as §1
A total of sixty mice, 10 in each group, were used in the survival phase of experimentation. Five hours after CLP, BisEDT was administered intravenously in five groups via the tail vein, once a day for three days, at doses of 0.2, 2, 20, 200 and 2000 ug Bi^3+/kg, while the last group received vehicle only. The survival time for each group of mice was recorded to determine an optimal dosage of BisEDT. The study was repeated using limited doses to confirm the results, and to determine if more frequent dosing would increase or prolong survival. This group was injected twice daily with the same doses of BisEDT, with one control group.
(§2) A total of eight groups each containing 10-20 mice in each group were used for the next phase of the study. Five hours after initiation of inflammation, 20 ug/kg BisEDT was administered intravenously with the combination of different biologics indicated in Table 2 with one group that received vehicle only (control). The survival time for each group was recorded. In another eight groups of mice 10 in each group was injected similarly with the same combination of treatment and control and several measures of immune response were assessed such as measurement of pro- and anti-inflammatory cytokines during BisEDT treatment of these mice. […] From 60-70% of mice survived when treated with one or two doses of 20 μg/kg BisEDT (p<0.05), whereas doses 10-fold higher or lower protected only 30-40% of mice (Table 1). […] However, only free TNFα, not total TNFα or free IL-10, correlated strongly with survival (r=−0.92). IL-10 is an anti-inflammatory cytokine and under certain circumstances it can cause immunosuppression. In order to test whether IL-10 plays a role in the model, monoclonal antibodies to IL-10 (that neutralizes IL-10) were used. […] Additionally, IL10 or IL-10+BisEDT provided no protection for the mice. A general damping down of cytokine production was observed, yet it was the reduction in free TNFα that correlated most closely with prevention. BisEDT appears to preserve the normal cellular response to activating stimuli and to protect mice from immune suppression or overwhelming immune reaction.
After inflammation, BisEDT was introduced into the tail vein once or twice daily for three days. Mice were monitored for 8 days to determine survival. *p<0.05, compared to control.

TNFα = test: Serum TNFα (total and free) in mouse inflammation model; assay type: in vivo, mice
Method: as §1, §2

[1] = 20 μg Bi3+/kg BW, *p<0.05 vs control
[2] = Table 2, treatment i.v. five hours after initiation of inflammation, BisEDT 20 ug/kg

Substance | sIL-10 (free fraction), serum (IL-10) [pg/mL] | % Survival 1 dose (Male swiss white mice; 2 μg Bi3+/kg BW) [%] | % Survival 2 doses (Male swiss white mice; 2 μg Bi3+/kg BW) [%] | % Survival 1 dose (Male swiss white mice; [1]) | % Survival 2 doses (Male swiss white mice; [1]) | % Survival 1 dose (Male swiss white mice; 200 μg Bi3+/kg BW) [%] | % Survival 2 doses (Male swiss white mice; 200 μg Bi3+/kg BW) [%] | % Survived (Male swiss white mice) [%] | Survived/Total (Male swiss white mice) | % of mice protected (Male swiss white mice; doses 10-fold higher or lower than 20 μg/kg) | % of mice survived (Male swiss white mice; one or two doses of 20 μg/kg BisEDT (p<0.05)) | changes in cytokine levels (IL1β, TNFα, IL-10, TGFβ), in words (TNFα; BisEDT-treated mice, not nearly to the same extent as in the untreated group) | sTNFα (free fraction), serum (TNFα; [2]) [pg/mL] | tTNFα (total fraction), serum (TNFα; [2]) [ng/mL] | protection of mice (in words) (Male swiss white mice; mouse inflammation model)
Bismuth-ethanedithiol [BisEDT] | 595 | 40 | 40 | 60* % | 70* % | 40 | 30 | 60 | 6/10 | 30-40% | 60-70% | significant changes in TNFα only | 100 | 330 | 
IL-10: IL-10 is an anti-inflammatory cytokine |  |  |  |  |  |  |  | 0 | 0/10 |  |  |  |  |  | no protection
